Source: BindingDB's records for doi:10.1021/acsmedchemlett.6b00381 (Mossakowski Medical Research Centre Polish Academy of …, 2017)

Biological target: Substance-P receptor (Rattus norvegicus, UniProt P14600)
Assay: ChEBML_1632341
Experimental: Displacement of [Leu-3,4,5-3H(N)]-Substance P from NK1 receptor in rat brain homogenate measured after 60 mins by microbeta scintillation counting analysis

Substance-P receptor, sequence (P14600 whole entry): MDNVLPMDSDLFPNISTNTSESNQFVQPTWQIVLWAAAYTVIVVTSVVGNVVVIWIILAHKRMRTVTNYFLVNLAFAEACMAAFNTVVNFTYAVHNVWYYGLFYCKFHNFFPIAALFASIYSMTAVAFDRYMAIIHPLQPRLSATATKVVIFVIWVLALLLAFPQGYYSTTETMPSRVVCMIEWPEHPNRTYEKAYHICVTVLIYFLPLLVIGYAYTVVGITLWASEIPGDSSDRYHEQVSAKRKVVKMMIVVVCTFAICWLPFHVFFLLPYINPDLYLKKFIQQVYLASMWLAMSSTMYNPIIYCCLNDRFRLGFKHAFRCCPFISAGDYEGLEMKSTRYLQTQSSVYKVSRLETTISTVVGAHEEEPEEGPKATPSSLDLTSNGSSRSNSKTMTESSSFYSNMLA

`C[C@@H](NC(=O)[C@@H](N)Cc1ccc(O)cc1)C(=O)NCC(=O)N[C@@H](Cc1ccccc1)C(=O)NN=Cc1cc(C(F)(F)F)cc(C(F)(F)F)c1` was tested, and the IC50 was 4.2 nM.
